Source: US11072634B2, “Inhibitors of transglutaminases” (Zedira GmbH, priority 2016, dated 2021)
Read-outs that look alike come from different tables or passages of the source. *1 amine or outer side, *2 acyl side, *3 side chain or, on linkers, in order; H or OH if unused. Where a SMILES comes first, the peptide text is derived from it. [ ]: non-standard residue; d: D form. The star is where a group is joined. Nle(5,6-dioxo,6-NHMe) = CNC(=O)C(=O)CC[C@H](N)C(=O)O; X7 = O=C(CC[C@H](N[*:1])C(=O)[*:2])C(=O)NCc1ccccc1; X2 = CC(C)(C)NC(=O)C(=O)CC[C@H](N[*:1])C(=O)[*:2]; X4 = O=C(CC[C@H](N[*:1])C(=O)[*:2])C(=O)NC1CC1; Isonicotinoyl(3-COOH) = O=C(O)c1cnccc1C(=O)*; X5 = NC(=O)C(=O)CC[C@H](N[*:1])C(=O)[*:2]; d(aIle) = CC[C@H](C)[C@@H](N)C(=O)O; Pro(4-oxo) = O=C1CN[C@H](C(=O)O)C1; Chg = N[C@H](C(=O)O)C1CCCCC1; Tle = CC(C)(C)[C@H](N)C(=O)O; Nle = CCCC[C@H](N)C(=O)O; X3 = Cc1nc(C(=O)*)cs1

What was measured:
[1] = molecular target: T1, recombinant human factor XIII A-subunit (rhFXIII-A, plasma transglutaminase) (Homo sapiens, UniProt P00488); assay: Inhibition of rec. human coagulation factor XIII (fluorescence, Abz-NE(CAD-DNP)EQVSPLILLK-OH); format: biochemical
T1 construct: His6; purchased Zedira 1027 (so in the source); T027)
T1 sequence (P00488 39-732 limits assumed): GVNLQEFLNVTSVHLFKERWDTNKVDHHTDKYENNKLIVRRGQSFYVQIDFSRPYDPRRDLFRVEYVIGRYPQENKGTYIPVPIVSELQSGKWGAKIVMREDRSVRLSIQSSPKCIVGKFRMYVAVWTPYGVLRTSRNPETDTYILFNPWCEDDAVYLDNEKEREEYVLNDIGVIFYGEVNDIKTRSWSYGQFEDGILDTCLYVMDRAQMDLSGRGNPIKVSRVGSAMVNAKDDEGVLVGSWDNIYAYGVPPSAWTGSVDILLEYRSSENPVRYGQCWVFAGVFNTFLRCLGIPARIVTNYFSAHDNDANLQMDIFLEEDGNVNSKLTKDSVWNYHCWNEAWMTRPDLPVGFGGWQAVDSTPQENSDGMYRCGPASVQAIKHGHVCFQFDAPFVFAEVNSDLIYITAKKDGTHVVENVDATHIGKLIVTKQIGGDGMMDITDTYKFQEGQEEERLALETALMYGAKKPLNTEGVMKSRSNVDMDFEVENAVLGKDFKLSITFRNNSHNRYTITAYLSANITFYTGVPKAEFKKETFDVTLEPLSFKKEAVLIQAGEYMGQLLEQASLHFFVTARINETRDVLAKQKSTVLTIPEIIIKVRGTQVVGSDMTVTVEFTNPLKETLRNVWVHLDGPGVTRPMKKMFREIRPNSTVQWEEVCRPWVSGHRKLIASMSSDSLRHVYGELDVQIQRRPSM
Method: Method for Inhibition Studies of Rec. Human Coagulation Factor XIII (Plasma Transglutaminase, rhFXIII-A)
(§1) 50 μg lyophilized His-tagged recombinant human factor XIII A-subunit (His6-rhFXIII, Zedira product 1027) is reconstituted in H2O (volume depends on original volume before lyophilization) resulting in a buffer containing 20 mM Tris-HCl, 150 mM NaCl, 1 mM EDTA, 1 mM DTT, 189 mg/ml maltodextrin, pH=7.5. The rhFXIII stock solution is diluted in buffer (50 mM Tris-HCl, 7.5 mM CaCl2, 150 mM NaCl, pH=7.4) to give a working solution of 59 U/ml (based on the amine-incorporation activity measured using transglutaminase activity assay #1036 (Zedira GmbH), described below).
(§2) A 10 mM inhibitor stock solution is prepared in DMSO, and from this a serial 1:2-fold dilution series is prepared also in DMSO. Each of the initial dilutions is subsequently diluted 1:50-fold with buffer (50 mM Tris-HCl, 7.5 mM CaCl2, 150 mM NaCl, pH=7.4) to yield the final working dilutions containing 2% (v/v) DMSO.
(§3) 15 μl of inhibitor working dilution are added per well of a 96 well microtiter plate. As control, 15 μl of a 2% (v/v) DMSO solution prepared using the buffer mentioned above are added per well.
(§4) 480 μl of His6-rhFXIII working solution and 120 μl human alpha thrombin (0.5 NIH units/μl) are added to 10.8 ml assay buffer (50 mM Tris-HCl, 7.5 mM CaCl2, 150 mM NaCl, 5 mM DTT, 13.4 mM glycine methylester, 50 μM Abz-NE(CAD-DNP)EQVSPLILLK-OH, (Zedira product A101; patent No.: EP 1781807B1), pH=7.4). From this master-mix solution, 285 μl are added per well containing the inhibitor. Increase in fluorescence is measured using […] and λem=418 nm at 37° C. for 35 min. A slope of the increase in fluorescence between 20 and 30 min is calculated for determination of the IC50 value (inhibitor concentration at which 50% of the initial FXIII activity is blocked).
(§5) Analysis of enzymatic activity is performed by calculation of the slope of an increase in fluorescence intensity. IC50 values are calculated by plotting the enzymatic activity (as percentage from control containing 2% DMSO instead of inhibitor) against the inhibitor concentration. IC50 is defined as the inhibitor concentration blocking 50%) of initial enzyme activity.

TG2 = molecular target: T2, TG2 (Homo sapiens, UniProt P21980); assay: FXIII assay format using TG2 instead of FXIII (selectivity of FXIIIa blockers); format: biochemical
T2 sequence (P21980 1-687): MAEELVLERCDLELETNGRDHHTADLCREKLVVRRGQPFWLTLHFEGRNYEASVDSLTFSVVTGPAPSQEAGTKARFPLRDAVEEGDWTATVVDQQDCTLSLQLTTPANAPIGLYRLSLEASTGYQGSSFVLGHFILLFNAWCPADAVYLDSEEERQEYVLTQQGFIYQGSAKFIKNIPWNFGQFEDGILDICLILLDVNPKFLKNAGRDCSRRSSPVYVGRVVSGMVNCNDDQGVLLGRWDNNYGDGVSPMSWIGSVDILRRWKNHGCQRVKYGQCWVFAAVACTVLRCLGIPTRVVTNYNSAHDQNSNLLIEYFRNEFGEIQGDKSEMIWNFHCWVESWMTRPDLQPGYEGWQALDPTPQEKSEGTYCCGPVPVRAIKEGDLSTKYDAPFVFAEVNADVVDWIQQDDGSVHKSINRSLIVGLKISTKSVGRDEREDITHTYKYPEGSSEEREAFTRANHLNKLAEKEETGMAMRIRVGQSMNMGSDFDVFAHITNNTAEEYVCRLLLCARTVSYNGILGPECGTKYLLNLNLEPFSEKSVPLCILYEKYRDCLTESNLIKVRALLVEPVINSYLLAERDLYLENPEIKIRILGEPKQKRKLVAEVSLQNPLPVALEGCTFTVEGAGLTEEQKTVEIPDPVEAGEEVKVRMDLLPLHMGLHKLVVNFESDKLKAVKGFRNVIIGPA
Method: as §1, §2, §3, §4
This assay was also used to determine selectivity of inhibitors preferentially blocking FXIIIa by using TG2 instead of FXIII.
as §5

[2] = Table 3, FXIII inhibitors, read-out: IC50 FXIII
[3] = Table 3, selectivity with respect to TG2, read-out: IC50 TG2

IC50 [1, 2] [nM] | IC50 (TG2; [3]) [nM] | Compound | IC50 [1] [nM] | IC50 (TG2) [nM]
2900 | > 20000 | CC(C)(C)NC(=O)C(=O)CC[C@H](NC(=O)c1ccncc1C(=O)O)C(=O)N[C@H](C(=O)N1CC(=O)C[C@H]1C(=O)N[C@H](C(=O)N[C@H](C(N)=O)C1CCCCC1)C1CCCCC1)C(C)(C)C [Compound E30, 4-((S)-1-((S)-1-((S)-2-((S)-2-((S)-2-amino-1-cyclohexyl-2-oxoethylamino)-1-cyclohexyl-2-oxoethylcarbamoyl)-4-oxopyrrolidin-1-yl)-3,3-dimethyl-1-oxobutan-2-ylamino)-6-(tert-butylamino)-1,5,6-trioxohexan-2-ylcarbamoyl)nicotinic acid] ({Isonicotinoyl(3-COOH)}-[X2][Tle][Pro(4-oxo)][Chg][Chg]-NH2) |  | 
850 | > 20000 | CC(C)(C)[C@H](NC(=O)[C@H](CCC(=O)C(=O)NCc1ccccc1)NC(=O)c1ccncc1C(=O)O)C(=O)N1CC(=O)C[C@H]1C(=O)N[C@H](C(=O)N[C@H](C(N)=O)C1CCCCC1)C1CCCCC1 [Compound E29, 4-((S)-1-((S)-1-((S)-2-((S)-2-((S)-2-amino-1-cyclohexyl-2-oxoethylamino)-1-cyclohexyl-2-oxoethylcarbamoyl)-4-oxopyrrolidin-1-yl)-3,3-dimethyl-1-oxobutan-2-ylamino)-6-(benzylamino)-1,5,6-trioxohexan-2-ylcarbamoyl)nicotinic acid] ({Isonicotinoyl(3-COOH)}-[X7][Tle][Pro(4-oxo)][Chg][Chg]-NH2) |  | 
3100 | 800 | CCCC[C@H](NC(=O)[C@H](CCC(=O)C(=O)NC)NC(=O)CNC(=O)[C@@H]1CCCN1C(=O)CNC(C)=O)C(=O)N[C@H](C(=O)N[C@@H](CC(C)C)C(=O)N1CCC[C@H]1C(=O)N[C@@H](Cc1c[nH]c2ccccc12)C(N)=O)[C@@H](C)CC [Compound E36, (S)-2-(2-((S)-1-(2-acetamidoacetyl)pyrrolidine-2-carboxamido)acetamido)-N1-((S)-1-((2S,3S)-1-((S)-1-((S)-2-((S)-1-amino-3-(1H-indol-3-yl)-1-oxopropan-2-ylcarbamoyl)pyrrolidin-1-yl)-4-methyl-1-oxopentan-2-ylamino)-3-methyl-1-oxopentan-2-ylamino)-1-oxohexan-2-yl)-N6-methyl-5-oxohexanediamide] (Ac-GPG[Nle(5,6-dioxo,6-NHMe)][Nle]ILPW-NH2) |  | 
16000 | 11500 | CC[C@H](C)[C@@H](NC(=O)[C@H](CC(C)C)NC(=O)[C@H](CCC(=O)C(=O)NC1CC1)NC(=O)c1csc(C)n1)C(=O)N[C@@H](CC(C)C)C(=O)N1CCC[C@H]1C(=O)N[C@@H](Cc1c[nH]c2ccccc12)C(=O)N1CCC[C@H]1C(N)=O [Compound E33, (S)—N1-((S)-1-((2R,3S)-1-((S)-1-((S)-2-((S)-1-((S)-2-carbamoylpyrrolidin-1-yl)-3-(1H-indol-3-yl)-1-oxopropan-2-ylcarbamoyl)pyrrolidin-1-yl)-4-methyl-1-oxopentan-2-ylamino)-3-methyl-1-oxopentan-2-ylamino)-4-methyl-1-oxopentan-2-yl)-N6-cyclopropyl-2-(2-methylthiazole-4-carboxamido)-5-oxohexanediamide] (X3-[X4]L[d(aIle)]LPWP-NH2) |  | 
2500 | 390 | CCCC[C@H](NC(=O)[C@H](CCC(=O)C(=O)NC)NC(=O)CNC(=O)[C@@H]1CCCN1C(=O)CNC(=O)[C@H](CC(C)C)NC(C)=O)C(=O)N[C@H](C(=O)N[C@@H](CC(C)C)C(=O)N1CCC[C@H]1C(=O)N[C@@H](Cc1c[nH]c2ccccc12)C(N)=O)[C@@H](C)CC [Compound E37, (S)-2-(2-((S)-1-(2-((S)-2-acetamido-4-methylpentanamido)acetyl)pyrrolidine-2-carboxamido)acetamido)-N1-((S)-1-((2S,3S)-1-((S)-1-((S)-2-((S)-1-amino-3-(1H-indol-3-yl)-1-oxopropan-2-ylcarbamoyl)pyrrolidin-1-yl)-4-methyl-1-oxopentan-2-ylamino)-3-methyl-1-oxopentan-2-ylamino)-1-oxohexan-2-yl)-N6-methyl-5-oxohexanediamide] (Ac-LGPG[Nle(5,6-dioxo,6-NHMe)][Nle]ILPW-NH2) |  | 
1950 | 525 | CCCC[C@H](NC(=O)[C@H](CCC(=O)C(=O)NC)NC(=O)CNC(=O)[C@@H]1CCCN1C(C)=O)C(=O)N[C@H](C(=O)N[C@@H](CC(C)C)C(=O)N1CCC[C@H]1C(=O)N[C@@H](Cc1c[nH]c2ccccc12)C(N)=O)[C@@H](C)CC [Compound E35, (S)-2-(2-((S)-1-acetylpyrrolidine-2-carboxamido)acetamido)-N1-((S)-1-((2S,3S)-1-((S)-1-((S)-2-((S)-1-amino-3-(1H-indol-3-yl)-1-oxopropan-2-ylcarbamoyl)pyrrolidin-1-yl)-4-methyl-1-oxopentan-2-ylamino)-3-methyl-1-oxopentan-2-ylamino)-1-oxohexan-2-yl)-N6-methyl-5-oxohexanediamide] (Ac-PG[Nle(5,6-dioxo,6-NHMe)][Nle]ILPW-NH2) |  | 
 |  | CC(C)(C)[C@H](NC(=O)[C@H](CCC(=O)C(N)=O)NC(=O)c1cnc(O)c([N+](=O)[O-])c1)C(=O)N1CCCCC1C(=O)N[C@H](C(=O)N[C@H](C(N)=O)C1CCCCC1)C1CCCCC1 (stereo in doubt) [Compound E09, (S)—N1-((S)-1-((R)-2-((S)-2-((S)-2-amino-1-cyclohexyl-2-oxoethylamino)-1-cyclohexyl-2-oxoethylcarbamoyl)piperidin-1-yl)-3,3-dimethyl-1-oxobutan-2-yl)-2-(6-hydroxy-5-nitronicotinamido)-5-oxohexanediamide] | 150 | 100
5000 | > 20000 | CC(C)(C)[C@H](NC(=O)[C@H](CCC(=O)C(N)=O)NC(=O)c1ccncc1C(=O)O)C(=O)N1CC(=O)C[C@H]1C(=O)N[C@H](C(=O)N[C@H](C(N)=O)C1CCCCC1)C1CCCCC1 [Compound E31, 4-((S)-6-amino-1-((S)-1-((S)-2-((S)-2-((S)-2-amino-1-cyclohexyl-2-oxoethylamino)-1-cyclohexyl-2-oxoethylcarbamoyl)-4-oxopyrrolidin-1-yl)-3,3-dimethyl-1-oxobutan-2-ylamino)-1,5,6-trioxohexan-2-ylcarbamoyl)nicotinic acid] ({Isonicotinoyl(3-COOH)}-[X5][Tle][Pro(4-oxo)][Chg][Chg]-NH2) |  | 
